Measurements from paper PMC3961306, “Comparison of the Cancer Gene Targeting and Biochemical Selectivities of All Targeted Kinase Inhibitors Approved for Clinical Use” (PLoS ONE, 2014).

Columns and labels:
Test in all cases: Kinase profiling in a biochemical assay panel (mobility shift assays and ELISA), %-inhibition at 1 μM; selectivity entropy
[1] = molecular target: T1, panel of more than 300 wild-type and mutant kinases (313 kinase panel) (Homo sapiens, UniProt Q12852)
T1 sequence (Q12852 1-859): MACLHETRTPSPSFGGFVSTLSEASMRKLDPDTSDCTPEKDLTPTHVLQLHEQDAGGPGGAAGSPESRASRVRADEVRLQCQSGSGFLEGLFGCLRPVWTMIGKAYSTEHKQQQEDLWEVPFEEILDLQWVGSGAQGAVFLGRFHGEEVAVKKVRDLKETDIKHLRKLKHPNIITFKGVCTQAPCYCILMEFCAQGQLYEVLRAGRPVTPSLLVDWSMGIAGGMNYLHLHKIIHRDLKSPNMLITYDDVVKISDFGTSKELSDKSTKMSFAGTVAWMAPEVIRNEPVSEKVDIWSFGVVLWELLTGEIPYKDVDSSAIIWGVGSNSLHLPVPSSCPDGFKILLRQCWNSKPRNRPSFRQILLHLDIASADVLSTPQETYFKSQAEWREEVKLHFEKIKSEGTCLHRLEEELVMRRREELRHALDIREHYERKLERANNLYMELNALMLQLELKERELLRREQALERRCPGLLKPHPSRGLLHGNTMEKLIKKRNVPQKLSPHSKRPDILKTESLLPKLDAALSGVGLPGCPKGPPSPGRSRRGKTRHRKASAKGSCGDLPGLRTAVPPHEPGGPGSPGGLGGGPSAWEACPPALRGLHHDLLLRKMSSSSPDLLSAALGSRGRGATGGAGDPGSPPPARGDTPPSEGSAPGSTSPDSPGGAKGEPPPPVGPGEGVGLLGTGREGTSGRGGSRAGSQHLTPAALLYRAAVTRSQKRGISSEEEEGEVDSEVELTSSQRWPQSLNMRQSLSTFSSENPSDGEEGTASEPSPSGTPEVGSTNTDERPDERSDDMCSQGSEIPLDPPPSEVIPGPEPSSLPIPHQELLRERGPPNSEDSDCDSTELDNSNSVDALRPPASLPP

[2] = molecular target: panel of more than 300 wild-type and mutant kinases (313 kinase panel) (Homo sapiens, UniProt Q00526)
[3] = molecular target: T2, panel of more than 300 wild-type and mutant kinases (313 kinase panel) (Homo sapiens, UniProt Q8IWQ3)
T2 sequence (Q8IWQ3 1-736): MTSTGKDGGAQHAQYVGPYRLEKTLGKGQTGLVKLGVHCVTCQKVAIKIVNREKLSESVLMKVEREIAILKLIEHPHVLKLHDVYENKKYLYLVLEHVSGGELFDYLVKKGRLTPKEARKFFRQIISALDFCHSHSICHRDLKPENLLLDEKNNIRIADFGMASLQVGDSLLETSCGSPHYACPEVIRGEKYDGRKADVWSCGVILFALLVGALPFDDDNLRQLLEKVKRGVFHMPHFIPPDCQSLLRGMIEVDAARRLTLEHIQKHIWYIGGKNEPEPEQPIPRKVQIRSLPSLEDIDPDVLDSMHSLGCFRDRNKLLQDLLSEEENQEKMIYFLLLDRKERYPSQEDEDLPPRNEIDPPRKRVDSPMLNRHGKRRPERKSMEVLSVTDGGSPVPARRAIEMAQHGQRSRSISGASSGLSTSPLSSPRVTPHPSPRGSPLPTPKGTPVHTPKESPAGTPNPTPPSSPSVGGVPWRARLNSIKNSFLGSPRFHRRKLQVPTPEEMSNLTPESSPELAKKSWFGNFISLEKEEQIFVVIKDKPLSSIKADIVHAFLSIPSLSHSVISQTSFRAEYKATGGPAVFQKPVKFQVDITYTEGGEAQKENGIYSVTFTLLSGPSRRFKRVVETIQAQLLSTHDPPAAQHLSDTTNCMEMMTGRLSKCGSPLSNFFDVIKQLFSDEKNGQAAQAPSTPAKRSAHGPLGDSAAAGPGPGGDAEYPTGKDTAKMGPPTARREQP

[4] = molecular target: panel of more than 300 wild-type and mutant kinases (313 kinase panel) (Homo sapiens, UniProt P50613)
[5] = molecular target: panel of more than 300 wild-type and mutant kinases (313 kinase panel) (Homo sapiens, UniProt P08581)
[6] = kinase CDK3/CycE1, 1 μM compound
[7] = kinase CDK7/CycH/MAT1, 1 μM compound

panel of more than 300 wild-type and mutant kinases (313 kinase panel) (Homo sapiens, UniProt Q00526), sequence (Q00526 whole entry, change not shown): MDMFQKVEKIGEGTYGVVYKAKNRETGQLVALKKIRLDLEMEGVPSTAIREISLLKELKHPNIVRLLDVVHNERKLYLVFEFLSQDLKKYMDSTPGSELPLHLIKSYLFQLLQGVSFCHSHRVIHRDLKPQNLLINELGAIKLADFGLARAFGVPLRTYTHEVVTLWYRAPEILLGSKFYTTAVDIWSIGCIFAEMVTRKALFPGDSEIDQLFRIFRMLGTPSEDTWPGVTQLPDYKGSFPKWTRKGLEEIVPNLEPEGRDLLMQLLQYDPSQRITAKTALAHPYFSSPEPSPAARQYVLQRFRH
panel of more than 300 wild-type and mutant kinases (313 kinase panel) (Homo sapiens, UniProt P50613), sequence (P50613 whole entry, change not shown): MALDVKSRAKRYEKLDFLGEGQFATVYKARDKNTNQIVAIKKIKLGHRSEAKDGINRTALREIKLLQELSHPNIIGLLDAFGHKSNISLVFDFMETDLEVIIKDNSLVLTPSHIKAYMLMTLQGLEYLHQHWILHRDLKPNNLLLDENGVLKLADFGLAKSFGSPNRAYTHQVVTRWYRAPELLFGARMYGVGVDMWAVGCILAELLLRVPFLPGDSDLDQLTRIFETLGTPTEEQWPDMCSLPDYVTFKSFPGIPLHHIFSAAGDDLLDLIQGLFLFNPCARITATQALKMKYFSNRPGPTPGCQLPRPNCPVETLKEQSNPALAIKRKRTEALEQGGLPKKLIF

Row | SMILES | %-inhibition of DLK ([1]; kinase DLK, compound at 1 μM) [%] | %-inhibition, CDK3/CycE1 [2, 6] [%] | %-inhibition, BRSK2 ([3]; kinase BRSK2, 1 μM compound) [%] | %-inhibition, CDK7/CycH/MAT1 [4, 7] [%] | %-inhibition of MET ([5]; kinase MET, compound at 1 μM) [%] | %-inhibition of DLK ([1]; 1 µM) [%] | %-inhibition, CDK3/CycE1 ([2]; 1 µM) [%] | %-inhibition, BRSK2 ([3]; 1 µM) [%] | %-inhibition, CDK7/CycH/MAT1 ([4]; 1 µM) [%] | %-inhibition of MET ([5]; 1 µM) [%]
1 | C[C@@H](Oc1cc(-c2cnn(C3CCNCC3)c2)cnc1N)c1c(Cl)ccc(F)c1Cl [crizotinib] | 86 | -5.68 | 8 | 58 | – | – | – | – | – | –
2 | CC(C)(C)c1nc(-c2cccc(NS(=O)(=O)c3c(F)cccc3F)c2F)c(-c2ccnc(N)n2)s1 [dabrafenib] | -10 | – | 30 | – | 27 | – | – | – | – | –
3 | COc1cc2c(Nc3ccc(Br)cc3F)ncnc2cc1OCC1CCN(C)CC1 [vandetanib] | 20 | -13 | -10 | -4.26 | – | – | – | – | – | –
4 | O=S(=O)(c1cccc2cnccc12)N1CCCNCC1 [fasudil] | -11 | 24 | 6 | 7.49 | -4 | – | – | – | – | –
5 | C#Cc1cccc(Nc2ncnc3cc(OCCOC)c(OCCOC)cc23)c1 [erlotinib] | – | – | – | – | – | -1.89 | 7 | 3.75 | 1.22 | 13
6 | COc1cc2nccc(Oc3ccc(NC(=O)C4(C(=O)Nc5ccc(F)cc5)CC4)cc3)c2cc1OC [cabozantinib] | 36 | -2.84 | 5.62 | -10 | – | – | – | – | – | –
7 | Cc1ccc(C(=O)Nc2ccc(CN3CCN(C)CC3)c(C(F)(F)F)c2)cc1C#Cc1cnc2cccnn12 [ponatinib] | 84 | 20 | -11 | 9 | 17 | – | – | – | – | –
8 | CCCS(=O)(=O)Nc1ccc(F)c(C(=O)c2c[nH]c3ncc(-c4ccc(Cl)cc4)cc23)c1F [vemurafenib] | 8 | -4.34 | -6 | 0.137 | 3.67 | – | – | – | – | –
9 | Cc1cn(-c2cc(NC(=O)c3ccc(C)c(Nc4nccc(-c5cccnc5)n4)c3)cc(C(F)(F)F)c2)cn1 [nilotinib] | – | -1.6 | -0.27 | -2.34 | -9 | 1.43 | – | – | – | –
10 | CS(=O)(=O)CCNCc1ccc(-c2ccc3ncnc(Nc4ccc(OCc5cccc(F)c5)c(Cl)c4)c3c2)o1 [lapatinib] | -3.44 | 2.84 | 3.58 | 2 | 0 | – | – | – | – | –
11 | CNC(=O)c1cc(Oc2ccc(NC(=O)Nc3ccc(Cl)c(C(F)(F)F)c3)c(F)c2)ccn1 [regorafenib] | -13 | -1.17 | -15 | -3 | 2.12 | – | – | – | – | –
12 | Cc1nc(Nc2ncc(C(=O)Nc3c(C)cccc3Cl)s2)cc(N2CCN(CCO)CC2)n1 [dasatinib] | 20 | 2.27 | – | – | – | – | – | – | – | –
13 | Cc1ccc(Nc2nccc(N(C)c3ccc4c(C)n(C)nc4c3)n2)cc1S(N)(=O)=O [pazopanib] | 40 | 0.931 | -2.18 | 9 | – | – | – | – | – | –
14 | N#CC[C@H](C1CCCC1)n1cc(-c2ncnc3[nH]ccc23)cn1 [ruxolitinib] | – | -9.52 | -12 | – | – | -0.311 | – | – | 3.25 | -3.54
15 | CO[C@H]1C[C@@H]2CC[C@@H](C)[C@@](O)(O2)C(=O)C(=O)N2CCCC[C@H]2C(=O)O[C@H]([C@H](C)C[C@@H]2CC[C@@H](OCCO)[C@H](OC)C2)CC(=O)[C@H](C)/C=C(\C)[C@@H](O)[C@@H](OC)C(=O)[C@H](C)C[C@H](C)/C=C/C=C/C=C/1C [everolimus] | -5 | -4.51 | -0.919 | -6 | -4 | – | – | – | – | –
16 | CC(=O)Nc1cccc(-n2c(=O)n(C3CC3)c(=O)c3c(Nc4ccc(I)cc4F)n(C)c(=O)c(C)c32)c1 [trametinib] | -2.85 | 0.16 | 5.38 | -6 | -2.41 | – | – | – | – | –
17 | COc1cc(Nc2c(C#N)cnc3cc(OCCCN4CCN(C)CC4)c(OC)cc23)c(Cl)cc1Cl [bosutinib] | 77 | – | -12 | -4.35 | 10 | – | 1 | – | – | –
18 | CO[C@H]1C[C@@H]2CC[C@@H](C)[C@@](O)(O2)C(=O)C(=O)N2CCCC[C@H]2C(=O)O[C@H]([C@H](C)C[C@@H]2CC[C@@H](OC(=O)C(C)(CO)CO)[C@H](OC)C2)CC(=O)[C@H](C)/C=C(\C)[C@@H](O)[C@@H](OC)C(=O)[C@H](C)C[C@H](C)/C=C/C=C/C=C/1C [temsirolimus] | -6 | -6 | -9 | -8 | -4.57 | – | – | – | – | –
